# US4120810A, “Paint remover with improved safety characteristics” (priority 1976, dated 1978)
# Like-named read-outs stand apart in the source and are kept apart here.
# Experiments:
# [1] = cited from earlier work
# [2] = Minutes to complete bubbling / softening of finishes (Example 5)
# Description: A 50 mole percent mixture of diacetone alcohol as the first chemical and Panasol AN-1 as the second chemical was compared against pure diacetone alcohol on a variety of surfaces.
# Latex enamel was also tested.
# [3] = Deglosser test: adhesion of latex enamel to wiped alkyd enamel (Example 6); conditions: after wiping off cooking oil with saturated paper towel, painting and drying
# Description: The mixture of Example 5 and straight diacetone alcohol were tested as deglossers, wherein an alkyd surface was covered with cooking oil. Then a paper towel saturated with the liquid was used to wipe off both the oil and the surface sheen of the alkyd enamel. This was followed by painting with latex enamel. […] Said commercially available deglossers contained such chemicals as methylene chloride, alcohols, and petroleum distillates.
# [4] = Paint stripping, xylene and diacetone alcohol mixture (Example 7)
# Description: A 50 mole percent mixture of xylene and diacetone alcohol was compared against the pure components on a number of substrates for use as paint strippers. […] On an alkyd sash and trim paint the xylene was ineffective.
# [5] = 75° F.; cited from earlier work
# [6] = Paint removal comparison of NMP/Panasol AN-1 mixtures with the pure components (Example 1)
# Description: Various mixtures of Panasol AN-1 and NMP were compared against the paint removal efficiency of the pure components. The following surfaces were tested: alkyd enamel, polyurethane varnish, two-part epoxy enamel, polyurethane marine enamel, latex enamel, and a surface with seven layers of aged alkyd enamels.
# The straight line drawn at a 45° angle represents the expected effectiveness, based on the state of the art with an averaging of the properties of the pure components (R. S. Downing, ibid.).
# [7] = Paint removal, NMP and benzyl alcohol (Example 9); conditions: alone
# Description: However, its mixture with NMP had substantially less effectiveness than either pure component.
# [8] = Paint removal, N-vinyl 2-pyrrolidone mixtures and pyrrolidone 2 (Example 4); conditions: variety of surfaces, as in Example 1
# Description: N-vinyl 2-pyrrolidone was substituted for NMP in the mixtures prepared in Example 1. They were tested as a paint remover on a variety of surfaces, also as in Example 1.
molecule,measurement,setting,value
CC(C)=O [Acetone],toxicity / health effects in words,[1]; background literature,low toxicity
"CC(=O)CC(C)(C)O [Diacetone Alcohol, diacetone alcohol]",Minutes to Complete Bubbling,[2]; Acrylic enamel,32 min
same,Minutes to Complete Bubbling,[2]; Alkyd enamel,40 min
same,time to softening,[2]; Latex enamel (does not bubble),4 min
same,Minutes to Complete Bubbling,[2]; Polyurethane varnish,36 min
same,softening and bubbling,[2]; alkyd and epoxy surfaces,"would soften alkyd and epoxy surfaces, permitting scraping but would not bubble them in a reasonable time"
same,Minutes to Complete Bubbling,[2]; polyurethane enamel,17 min
same,adhesion of the latex enamel to the alkyd enamel,[3],excellent
same,paint stripping effectiveness,[4]; alkyd sash and trim paint,effective but very slow
same,paint stripping effectiveness,[4]; brushing lacquer,equally effective
CO [Methanol],elimination,"[1]; Sax, Dangerous Properties of Industrial Materials",slowness with which it is eliminated
same,toxicity / health effects in words,[1]; background literature,prolongs the period of cardiovascular stress caused by the methylene chloride
same,toxicity / health effects in words,"[1]; background literature, listed as methanol","Severe exposures may cause dizziness, unconsciousness, sighing respiration, cardiac depression and eventually death"
ClCCl [Methylene chloride],vapor pressure,[5],400 mm Hg
same,metabolism,[1]; background literature,metabolized to carbon monoxide
"CN1CCCC1=O [NMP, n-methyl 2 pyrrolidone]",removal time,[6]; epoxy,ten
same,paint removal effectiveness,[6]; old lead based paint,equally effective
same,paint removal effectiveness,[6]; one surface with a modern coating,would not succumb to NMP
same,removal time,[6]; polyurethane enamel,5 min
c1ccccc1 [benzene],toxicity / health effects in words,[1]; background literature,"induces severe chronic toxic effects, causing anemia and damaging the bone marrow"
OCc1ccccc1 [benzyl alcohol],paint removal ability,[7],some ability to soften paint and remove it
O=C1CCCN1 [pyrrolidone 2],paint removal effectiveness,[8],ineffective as a paint remover
xylene,paint stripping effectiveness,[4]; alkyd sash and trim paint,ineffective
same,paint stripping effectiveness,[4]; brushing lacquer,ineffective
same,paint stripping effectiveness,[4]; latex flat paint,very slow acting
